Test [1] addresses T1, WRN (Homo sapiens, UniProt Q14191).
T1 construct: A His-tagged construct of WRN (AA S2-S1235) was produced and used for the ATPase assay; His; made in house; host or cells: Sf9 insect cells (baculovirus)
Nature of the test: WRN Helicase activity assay (fluorescence DNA unwinding). Format: biochemical. Particulars: 1-hr pre-incubation with enzyme; 100 μM ATP, 25 nM forked dsDNA, 1 nM WRN; geometric mean of at least 2 replicates. As to the method:
Compounds of the examples were tested for WRN helicase activity. DNA encoding the target protein, 6×HIS-TEV-WRN-517-945, was produced, cloned and transfected as detailed in Example D. To determine the inhibitory properties of the compounds, a 384 wells plate-based Helicase assay was set up to measure the extent of DNA unwinding (Helicase) activity of WRN. The WRN Helicase assay was designed to measure increase in fluorescence signal using a fluorescence based, donor-quencher paired forked dsDNA oligomer substrate (custom synthesis from Sigma-Aldrich) prepared by annealing equal amounts of oligo GPat-1 ([BHQ2][…]) and oligo GPat-2 ([…][TAM]). Continuous measurement of fluorescent signal was used to optimize the buffer conditions, concentration of enzyme (WRN), concentration of substrates (ATP & dsDNA), and the linearity of the Helicase reaction. All solutions were prepared in the following assay buffer: 50 mM Tris-HCl, pH-7.5, 2 mM MgCl2, 50 mM NaCl, 1 mM EGTA, 0.01% P-20, 0.05% BSA, and 2 mM DTT prepared with nuclease free water.
A serial dilution (1:3 scheme) of the compounds was prepared in neat DMSO and 100 nL of the compounds was dispensed in the Greiner black low volume (Greiner #784076) 384 wells assay plate. An 1-hr pre-incubation of the compounds with enzyme was included. A His-tagged construct of WRN (AA S2-S1235) was produced and used for the ATPase assay. Maximum inhibition control wells were set up with the addition of only assay buffer, and no inhibition control wells were set up with neat DMSO without test compounds. The reaction was initiated by addition of 5 μL substrate mix (200 μM ultrapure ATP, and 50 nM dsDNA prepared in assay buffer) and incubated at 25° C. for 35 min. A typical Helicase reaction consists of 25 nM forked dsDNA, 100 μM ATP, and 1 nM WRN prepared in assay buffer. The WRN Helicase reaction was quenched by the addition of 5 μL ‘STOP’ solution containing 100 mM EDTA (final EDTA concentration 33.33 mM) prepared in assay buffer. The plates were read on BMG PHERAstar FSX using 540/590 module to measure an increase of fluorescence. Data analysis was carried out using the Genedata software following % of control normalization. Fitting parameters include dose response IC50, Hill slope (n), maximum inhibition (S∞), and minimum inhibition (S0). The reported IC50 values for compounds in this invention are the geometric means of at least 2 independent replicates.

Test [2] has as its target T1, WRN. Nature of the test: WRN ATPase activity assay (ADP-Glo). The test is classed as biochemical. Particulars: 1-hr pre-incubation with enzyme; 100 μM ATP, 25 nM forked dsDNA, 1 nM WRN; geometric mean of at least 2 replicates. As to the method:
Compounds of the Examples were tested for WRN ATPase activity. WRN ATPase activity catalyzes ATP hydrolysis to produce ADP and phosphate. DNA encoding the target protein, 6×HIS-TEV-WRN-517-945, was produced, cloned and transfected as detailed in Example D. The amount of ADP produced was measured using ADP-Glo™ Kinase Assay kit from Promega Corporation in a Greiner white regular volume 384 wells assay plate (Greiner #781075). Data was normalized to a standard curve generated using various ADP concentrations and the corresponding luminescent signal intensities at each concentration. The assay conditions were optimized for enzyme concentration (WRN), substrate concentrations (ATP & dsDNA), and the linearity of the ATPase reaction, in the following assay buffer: 50 mM Tris-HCl, pH-7.5, 2 mM MgCl2, 50 mM NaCl, 1 mM EGTA, 0.01% P-20, 0.05% BSA, and 2 mM DTT prepared with nuclease free water.
A serial dilution (1:3 scheme) of the compounds were prepared in neat DMSO, with 100 nL of the compounds dispensed in the 384 wells assay plate. An 1-hr pre-incubation of the compounds with enzyme was included. A His-tagged construct of WRN (AA S2-S1235) was produced and used for the ATPase assay. Maximum inhibition control wells were set up with the addition of only assay buffer, and no inhibition control wells were set up with neat DMSO without test compounds. The reaction was initiated by addition of 5 μL substrate mix (200 μM ultrapure ATP, and 50 nM dsDNA prepared in assay buffer) and incubated at 25° C. for 35 min. A forked dsDNA oligomer substrate was prepared by annealing equal amounts of oligo GPat-1 ([BHQ2][…]) and oligo GPat-2 ([…][TAM]) and was used as dsDNA substrate for WRN ATPase assay. A typical ATPase reaction consists of 25 nM forked dsDNA, 100 μM ATP, and 1 nM WRN prepared in assay buffer. The WRN ATPase reaction was stopped by the addition of 5 μL of ADP-Glo Reagent from ADP-Glo™ Kinase Assay kit and incubated for 40 min to deplete the unreacted ATP. Afterwards, 5 μL of Kinase Detection Reagent from the ADP-Glo™ Kinase Assay kit was added and incubated for 1 hr for the development of luminescence signal.
Luminesce signals were measured on BMG PHERAstar FSX using luminescence protocol. Data analysis was carried out using Genedata software following % of control normalization. Fitting parameters include dose response IC50, Hill slope (n), maximum inhibition (S∞), and minimum inhibition (S0). The reported IC50 values for compounds in this invention are the geometric means of at least 2 independent replicates.

As a reminder, the IC50 is the point on the concentration scale where inhibition reaches its midpoint.

T1 sequence (Q14191 2-1235): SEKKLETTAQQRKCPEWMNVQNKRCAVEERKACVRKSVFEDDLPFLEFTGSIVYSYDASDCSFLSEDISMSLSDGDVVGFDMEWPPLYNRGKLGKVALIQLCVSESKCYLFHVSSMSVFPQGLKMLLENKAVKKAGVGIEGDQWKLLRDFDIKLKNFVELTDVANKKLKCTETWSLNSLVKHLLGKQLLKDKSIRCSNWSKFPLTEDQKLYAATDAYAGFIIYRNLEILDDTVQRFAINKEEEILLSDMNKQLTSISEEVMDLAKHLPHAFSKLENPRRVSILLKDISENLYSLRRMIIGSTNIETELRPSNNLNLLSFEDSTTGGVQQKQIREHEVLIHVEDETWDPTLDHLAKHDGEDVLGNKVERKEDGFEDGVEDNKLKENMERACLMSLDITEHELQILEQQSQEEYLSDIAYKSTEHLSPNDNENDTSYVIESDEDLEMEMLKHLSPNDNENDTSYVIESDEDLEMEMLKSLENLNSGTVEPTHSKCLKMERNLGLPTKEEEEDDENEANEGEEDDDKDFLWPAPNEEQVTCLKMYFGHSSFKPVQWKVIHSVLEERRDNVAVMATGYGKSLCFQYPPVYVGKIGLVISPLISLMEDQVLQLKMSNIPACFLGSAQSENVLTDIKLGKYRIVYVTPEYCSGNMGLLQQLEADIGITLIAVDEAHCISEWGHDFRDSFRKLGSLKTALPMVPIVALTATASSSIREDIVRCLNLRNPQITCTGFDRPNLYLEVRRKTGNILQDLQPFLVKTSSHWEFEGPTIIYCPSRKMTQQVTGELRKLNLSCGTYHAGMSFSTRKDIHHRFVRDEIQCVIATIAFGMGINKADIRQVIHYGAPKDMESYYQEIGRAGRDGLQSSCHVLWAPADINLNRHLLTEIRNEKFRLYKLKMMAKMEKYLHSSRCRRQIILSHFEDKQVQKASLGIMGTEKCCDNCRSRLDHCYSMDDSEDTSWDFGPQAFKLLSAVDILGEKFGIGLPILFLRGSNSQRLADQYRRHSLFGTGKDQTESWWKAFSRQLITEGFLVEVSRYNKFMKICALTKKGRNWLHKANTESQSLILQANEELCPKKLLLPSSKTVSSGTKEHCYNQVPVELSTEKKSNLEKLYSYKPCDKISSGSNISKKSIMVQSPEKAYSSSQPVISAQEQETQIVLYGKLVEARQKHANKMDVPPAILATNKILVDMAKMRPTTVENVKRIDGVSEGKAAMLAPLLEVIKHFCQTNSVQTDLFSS

For `C=CC(=O)Nc1ccccc1-c1c(CC)nc2n(CC(=O)Nc3ccc(C(F)(F)F)cc3)c(C)c(-c3cnn(C)c3)n2c1=O` [Example 16, N-(2-(7-Ethyl-2-methyl-3-(1-methyl-1H-pyrazol-4-yl)-5-oxo-1-(2-oxo-2-((4-(trifluoromethyl)phenyl)amino)ethyl)-1,5-dihydroimidazo[1,2-a]pyrimidin-6-yl)phenyl)acrylamide], the IC50 at WRN [1] and against WRN [2] was less than 100 nM each time.
On to `C=CC(=O)Nc1ccccc1-c1c(CC)nc2n(CC(=O)Nc3ccc(F)cc3)ccn2c1=O` [Example 17, N-(2-(7-ethyl-1-(2-((4-fluorophenyl)amino)-2-oxoethyl)-5-oxo-1,5-dihydroimidazo[1,2-a]pyrimidin-6-yl)phenyl)acrylamide], for which the IC50 at WRN [1] and against WRN [2] was 100 to 500 nM throughout.
Take `C=CC(=O)Nc1ccccc1-c1c(CC)nc2n(CC(=O)Nc3ccc(F)cc3)c(C)c(C)n2c1=O` [Example 18, N-(2-(7-Ethyl-1-(2-((4-fluorophenyl)amino)-2-oxoethyl)-2,3-dimethyl-5-oxo-1,5-dihydroimidazo[1,2-a]pyrimidin-6-yl)phenyl)acrylamide]: the IC50 against WRN [1] and against WRN [2] was less than 100 nM in each case.
For the molecule `C=CC(=O)Nc1ccccc1-c1c(C)nc2n(CC(=O)Nc3ccc(F)cc3)c(C)c(C)n2c1=O` [Example 19, N-(2-(1-(2-((4-Fluorophenyl)amino)-2-oxoethyl)-2,3,7-trimethyl-5-oxo-1,5-dihydroimidazo[1,2-a]pyrimidin-6-yl)phenyl)acrylamide], the half-maximal inhibitory concentration (IC50) at WRN [1] and against WRN [2] was less than 100 nM in each case.
Turning to `C=CC(=O)Nc1ccccc1-c1c(CC)nc2n(CC(=O)Nc3ccc(F)cc3Cl)c(C)c(C)n2c1=O` [Example 20, N-(2-(1-(2-((2-Chloro-4-fluorophenyl)amino)-2-oxoethyl)-7-ethyl-2,3-dimethyl-5-oxo-1,5-dihydroimidazo[1,2-a]pyrimidin-6-yl)phenyl)acrylamide], the IC50 against WRN [1] and against WRN [2] was less than 100 nM throughout.
For `C=CC(=O)Nc1ccccc1-c1c(CC)nc2n(CC(=O)Nc3ccc(C(F)(F)F)cc3)c(C)c(C)n2c1=O` [Example 21, N-(2-(7-Ethyl-2,3-dimethyl-5-oxo-1-(2-oxo-2-((4-(trifluoromethyl)phenyl)amino)ethyl)-1,5-dihydroimidazo[1,2-a]pyrimidin-6-yl)phenyl)acrylamide], the IC50 against WRN [1] and against WRN [2] was less than 100 nM in each case.
With `C=CC(=O)Nc1ccccc1-c1c(CC)nc2n(CC(=O)Nc3ccc(C(F)(F)F)cc3)c(-c3ccccc3)cn2c1=O` [Example 22, N-(2-(7-Ethyl-5-oxo-1-(2-oxo-2-((4-(trifluoromethyl)phenyl)amino)ethyl)-2-phenyl-1,5-dihydroimidazo[1,2-a]pyrimidin-6-yl)phenyl)acrylamide], the IC50 lay in the range of 500 to 1000 nM on WRN [1] and 1000 to 5000 nM against WRN [2].
For `C=CC(=O)Nc1cc(C(=O)NC2CC2)ccc1-c1c(CC)nc2n(CC(=O)Nc3ccc(C(F)(F)F)cc3)c(C)c(C)n2c1=O` [Example 23, 3-Acrylamido-N-cyclopropyl-4-(7-ethyl-2,3-dimethyl-5-oxo-1-(2-oxo-2-((4-(trifluoromethyl)phenyl)amino)ethyl)-1,5-dihydroimidazo[1,2-a]pyrimidin-6-yl)benzamide], the IC50 against WRN [1] and at WRN [2] was less than 100 nM each time.
For `C=CC(=O)Nc1cc(C(=O)NC2CC2)ccc1-c1c(CC)nc2n(CC(=O)Nc3ccc(F)cc3)c(C)c(C)n2c1=O` [Example 24, 3-Acrylamido-N-cyclopropyl-4-(7-ethyl-1-(2-((4-fluorophenyl)amino)-2-oxoethyl)-2,3-dimethyl-5-oxo-1,5-dihydroimidazo[1,2-a]pyrimidin-6-yl)benzamide], the half-maximal inhibitory concentration (IC50) on WRN [1] and against WRN [2] was less than 100 nM each time.
With `C=CC(=O)Nc1cc(C(=O)NC2CC2)ccc1-c1c(CC)nc2n(CC(=O)Nc3ccc(F)cc3Cl)c(C)c(C)n2c1=O` [Example 25, 3-Acrylamido-4-(1-(2-((2-chloro-4-fluorophenyl)amino)-2-oxoethyl)-7-ethyl-2,3-dimethyl-5-oxo-1,5-dihydroimidazo[1,2-a]pyrimidin-6-yl)-N-cyclopropylbenzamide], the IC50 against WRN [1] and against WRN [2] was less than 100 nM throughout.
As for `C=CC(=O)Nc1cc(C(=O)NC2CC2)ccc1-c1c(CC)nc2n(CC(=O)Nc3ccc(C(F)(F)F)cc3Cl)c(C)c(C)n2c1=O` [Example 26, 3-Acrylamido-4-(1-(2-((2-chloro-4-(trifluoromethyl)phenyl)amino)-2-oxoethyl)-7-ethyl-2,3-dimethyl-5-oxo-1,5-dihydroimidazo[1,2-a]pyrimidin-6-yl)-N-cyclopropylbenzamide], the IC50 at WRN [1] and against WRN [2] was less than 100 nM in each case.
Take `C=CC(=O)Nc1cc(C(=O)NCC)ccc1-c1c(CC)nc2n(CC(=O)Nc3ccc(C(F)(F)F)cc3)c(C)c(C)n2c1=O` [Example 27, 3-Acrylamido-N-ethyl-4-(7-ethyl-2,3-dimethyl-5-oxo-1-(2-oxo-2-((4-(trifluoromethyl)phenyl)amino)ethyl)-1,5-dihydroimidazo[1,2-a]pyrimidin-6-yl)benzamide]: the IC50 against WRN [1] and against WRN [2] was less than 100 nM in each case.
Consider `C=CC(=O)Nc1cc(C(=O)NC(C)C)ccc1-c1c(CC)nc2n(CC(=O)Nc3ccc(C(F)(F)F)cc3)c(C)c(C)n2c1=O` [Example 28, 3-Acrylamido-4-(7-ethyl-2,3-dimethyl-5-oxo-1-(2-oxo-2-((4-(trifluoromethyl)phenyl)amino)ethyl)-1,5-dihydroimidazo[1,2-a]pyrimidin-6-yl)-N-isopropylbenzamide], for which the half-inhibitory concentration (IC50) against WRN [1] and at WRN [2] was less than 100 nM in each case.
Regarding `C=CC(=O)Nc1cc(C(=O)NC2CCC2)ccc1-c1c(CC)nc2n(CC(=O)Nc3ccc(C(F)(F)F)cc3)c(C)c(C)n2c1=O` [Example 29, 3-Acrylamido-N-cyclobutyl-4-(7-ethyl-2,3-dimethyl-5-oxo-1-(2-oxo-2-((4-(trifluoromethyl)phenyl)amino)ethyl)-1,5-dihydroimidazo[1,2-a]pyrimidin-6-yl)benzamide], the IC50 at WRN [1] and against WRN [2] was less than 100 nM each time.
With `C=CC(=O)Nc1cc(C(=O)NCC(F)F)ccc1-c1c(CC)nc2n(CC(=O)Nc3ccc(C(F)(F)F)cc3)c(C)c(C)n2c1=O` [Example 30, 3-Acrylamido-N-(2,2-difluoroethyl)-4-(7-ethyl-2,3-dimethyl-5-oxo-1-(2-oxo-2-((4-(trifluoromethyl)phenyl)amino)ethyl)-1,5-dihydroimidazo[1,2-a]pyrimidin-6-yl)benzamide], the half-inhibitory concentration (IC50) against WRN [1] and at WRN [2] was less than 100 nM each time.

The values above are taken from patent US20250270217A1, “IMIDAZ0[1,2-A]PYRIMIDINE-5(1 H)-ONES HAVING A COVALENT WARHEAD AT THE 3-POSITION AS WRN INHIBITORS” (Incyte Corporation, priority 2023, published 2025).
